This is an account of results in US20240150321A1, “PYRAZOLYLSULFONAMIDE COMPOUNDS AND THEIR USE IN THERAPY” (HOTSPOT THERAPEUTICS, INC., priority 2022, published 2024).

Each structure is given as a SMILES string. Where two headings read alike, the source gives them in different places.

The target of one assay is Avi-tagged FL MALT-1 (Homo sapiens (Human), UniProt Q9UDY8). Put plainly: MALT-1 Fluorogenic Peptide Cleavage Assay (MALT1 inhibition assay). The class given is biochemical. The conditions noted are these: Ac-LRSR-AMC peptide substrate, 30 min pre-incubation, 90 min reaction at room temperature. As for the experimental part:
Inhibition of MALT1 activity by the presence of small molecules was evaluated using MALT-1 Fluorogenic Peptide Cleavage Assay. The assay utilizes a quenched AMC-labelled peptide that contains the MALT-1 recognition sequence and cleavage site (LRSR). MALT-1 mediated cleavage of the peptide relieves the quenching and leads to an increase in fluorescence at excitation (342 nm) and emission (441 nm).
The following reagents were obtained commercially and used to prepare standard reagent formulations as further described below: N-2-hydroxyethylpiperazine-N-2-ethane sulfonic acid (HEPES) (1 M, pH 7.5, stored at 4° C.), sodium citrate (stored at RT), tris(2-carboxyethyl) phosphine hydrochloride (T-CEP) (500 mM, stored at −20° C.), ethylenediaminetetraacetic acid (EDTA) (500 mM, stored at RT), dimethylsulfoxide (DMSO, stored at RT), 3-[(3-cholamido-propyl)dimethylammonio]-1-propane sulphate (CHAPS) (stored at RT), dimethylsulfoxide (DMSO), DMSO (Fisher Scientific, stored at RT), Avi-tagged FL MALT-1 (Pharmaron, stored at −70° C.), Ac-LRSR-AMC Peptide (SM Biochemicals, stored at −20° C.)., and ultrapure water (MILLLI-Q©).
The standard reagent formulations used in this assay were prepared and stored as follows. A 1.1 M solution of sodium citrate (161.3 g, 500 mL) was prepared and stored at room temperature. A 10% (w/v) CHAPS solution (2.0 g, 20 mL) was prepared and stored at 4° C. A 500 mM HEPES solution having pH of 6.89 was prepared from 200 mL of a 1 M HEPES solution having a pH of 7.5 using concentrated hydrochloric acid and brought to a final volume of 400 mL with MILLI-Q© H2O. The substrate, 10 mM Ac-LRSR-AMC Peptide, was prepared (10 mg, 1.370 mL DMSO) and stored at −20° C.
Compounds were plated to provide a 2% DMSO final concentration using a ProxiPlate-384 Plus F Black 384-shallow well microplate. The assay-ready plates were equilibrated to room temperature. A reaction buffer (30 mL total volume) was prepared by combining HEPES (pH 6.89, 25 mM, 1.5 mL), sodium citrate (660 mM, 18.0 mL), T-CEP (1 mM, 0.06 mL), EDTA ([…], 0.06 mL), CHAPS (0.05%, 0.15 mL), DMSO (2%, 0.6 mL), and MILLI-Q© H2O (10.23 mL; 9.63 mL when backfilled to 2% DMSO) followed by thorough mixing. DMSO was added only when compound plates had not been DMSO-backfilled to 2%.
MALT-1 was thawed and kept on ice. Peptide substrate was thawed on the bench under ambient conditions. A MALT-1 enzyme working stock was prepared from Avi-tagged FL MALT-1 (40 nM in a prepared reagent volume of 16.5 μL) and the reaction buffer (13.0 mL). MALT1 working stock (5 μL) was added to each well of the microplate. MALT-1 was pre-incubated with compounds for 30 minutes at room temperature.
Two substrate working stocks (Km and 10×Km) were prepared. The 1×Km substrate was prepared from Ac-LRSR-AMC Peptide (50 μM in a prepared reagent volume of 35.0 μL) and the reaction buffer (6.965 mL). The 10×Km substrate was prepared from Ac-LRSR-AMC Peptide (280 μM in a prepared reagent volume of 196.0 μL) and the reaction buffer (6.804 mL). The reaction was initiated by the addition of substrate working stock (5 μL, 50 μM) to Km plates and the addition of substrate working stock (5 μL 280 μM) to 10×Km plates. The plates were covered and incubated on the bench at room temperature for 90 minutes.
Fluorescence intensity was determined using a CLARIOstar microplate reader (BMG LABTECH) using the optimised AMC mode. Before taking readings, a 70% gain was applied on the neutral control well. Compound data were normalised to % Inhibition and used to plot sigmoidal concentration response curves to yield various parameters including IC50.

For assay [1], the system named is NF-kB reporter in Jurkat cells. As to the kind of experiment: NF-kB reporter assay in Jurkat cells stimulated with aCD3/aCD28/PMA. The class given is cell-based. The conditions noted are these: Jurkat cells, 1 hr compound pre-incubation, aCD3/aCD28/PMA stimulation 4 hr, One-Glo readout, read-out: NF-kB Reporter Assay IC50. The procedure: Jurkat cells were maintained in complete RPMI 1640 media supplemented with 10% FBS. Prior to the assay, 120 nL of the serial diluted compound was added in each well of 384-well flat bottom white plate (Corning #3570) by using liquid handler Echo550. Jurkat cells were harvested by centrifugation at 120 g for 10 min and resuspended in fresh RPMI 1640 media without serum. […] (25,000 cells) were seeded in each well of 384-well plate containing compound. After 1 hr incubation at 37° C. in a 5% CO2 incubator, […] of diluted aCD3/aCD28/PMA (final concentration at […] and […], respectively) in RPMI 1640 without serum were added to each well. After incubation at 37° C. in 5% CO2 for 4 hr, […] of One-Glo reagent (Promega #E6120) was added into each well. The plate was left at room temperature for 5 min and the signal was measured on EnVision (PerkinElmer).
Compounds in which an IC50 was not measured are designated as “N/A”.

Avi-tagged FL MALT-1, sequence (Q9UDY8 whole entry): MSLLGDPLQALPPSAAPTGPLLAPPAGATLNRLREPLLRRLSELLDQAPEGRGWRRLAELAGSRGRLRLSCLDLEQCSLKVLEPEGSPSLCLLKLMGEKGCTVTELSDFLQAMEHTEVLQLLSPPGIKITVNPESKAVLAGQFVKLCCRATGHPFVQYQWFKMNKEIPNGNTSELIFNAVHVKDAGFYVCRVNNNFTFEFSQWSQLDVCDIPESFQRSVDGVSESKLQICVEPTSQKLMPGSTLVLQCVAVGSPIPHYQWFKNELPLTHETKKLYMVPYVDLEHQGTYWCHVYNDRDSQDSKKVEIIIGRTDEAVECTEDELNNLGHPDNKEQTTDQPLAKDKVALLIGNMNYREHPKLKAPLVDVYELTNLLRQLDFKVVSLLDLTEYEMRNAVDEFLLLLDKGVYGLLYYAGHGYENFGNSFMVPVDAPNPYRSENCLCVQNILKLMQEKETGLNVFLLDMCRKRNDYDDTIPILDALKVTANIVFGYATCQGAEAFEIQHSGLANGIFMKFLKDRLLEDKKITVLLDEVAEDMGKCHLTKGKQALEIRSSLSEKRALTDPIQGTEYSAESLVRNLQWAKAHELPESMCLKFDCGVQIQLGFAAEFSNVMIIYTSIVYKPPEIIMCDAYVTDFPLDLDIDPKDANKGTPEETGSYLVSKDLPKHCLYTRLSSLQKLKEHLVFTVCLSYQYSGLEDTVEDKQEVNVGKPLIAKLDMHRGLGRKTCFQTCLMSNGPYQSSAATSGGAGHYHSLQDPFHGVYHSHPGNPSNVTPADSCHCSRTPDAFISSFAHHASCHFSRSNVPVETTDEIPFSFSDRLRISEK

As usually defined, the IC50 is the concentration at which inhibition is half-maximal. Consider `CCC(C)(O)c1ccnc(-n2cc(S(=O)(=O)Nc3c(OC)ccc4cnn(C)c34)cn2)c1` (single isomer, unassigned) [Compound I-315, 1-(4-(2-hydroxybutan-2-yl)pyridin-2-yl)-N-(6-methoxy-1-methyl-1H-indazol-7-yl)-1H-pyrazole-4-sulfonamide], for which the IC50 against Avi-tagged FL MALT-1 was 400 to 1000 nM; in assay [1] (Homo sapiens) it was below 400 nM.

In the case of `CCC(C)(OC)c1ccnc(-n2cc(S(=O)(=O)Nc3c(OC)ccc4cnn(C)c34)cn2)c1` (single isomer, unassigned) [Compound I-360, N-(6-methoxy-1-methyl-1H-indazol-7-yl)-1-(4-(2-methoxybutan-2-yl)pyridin-2-yl)-1H-pyrazole-4-sulfonamide], the values for the IC50 (on Avi-tagged FL MALT-1; in assay [1] (Homo sapiens)) were at most 400 nM and below 400 nM, respectively.

`CCC(C)(OC)c1ccnc(-n2cc(S(=O)(=O)Nc3c(OC)ccc4cnn(C)c34)cn2)c1` (single isomer, unassigned) [Compound I-361, N-(6-methoxy-1-methyl-1H-indazol-7-yl)-1-(4-(2-methoxybutan-2-yl)pyridin-2-yl)-1H-pyrazole-4-sulfonamide]: the values for the IC50 (against Avi-tagged FL MALT-1; in assay [1]) were at most 400 nM and below 400 nM, respectively.

For the compound `COc1ccc2cnn(C)c2c1NS(=O)(=O)c1cnn(-c2cc(C3(OC)CC(C)C3)ccn2)c1` (single isomer, unassigned) [Compound I-364, N-(6-methoxy-1-methyl-1H-indazol-7-yl)-1-(4-(1-methoxy-3-methylcyclobutyl)pyridin-2-yl)-1H-pyrazole-4-sulfonamide], the results for the IC50 (against Avi-tagged FL MALT-1; in assay [1] (Homo sapiens)) were 400 to 1000 nM and below 400 nM, respectively.

As for `COc1ccc2cnn(C)c2c1NS(=O)(=O)c1cnn(-c2cc(C3(OC)CC(C)C3)ccn2)c1` (single isomer, unassigned) [Compound I-365, N-(6-methoxy-1-methyl-1H-indazol-7-yl)-1-(4-(1-methoxy-3-methylcyclobutyl)pyridin-2-yl)-1H-pyrazole-4-sulfonamide], the IC50 on Avi-tagged FL MALT-1 was at most 400 nM; in assay [1] it was below 400 nM.

Take `COc1ccc2cnn(C)c2c1NS(=O)(=O)c1cnn(-c2cc(C3(F)CC(F)C3)ccn2)c1` (single isomer, unassigned) [Compound I-377, 1-(4-(1,3-difluorocyclobutyl)pyridin-2-yl)-N-(6-methoxy-1-methyl-1H-indazol-7-yl)-1H-pyrazole-4-sulfonamide]: the values for the IC50 (on Avi-tagged FL MALT-1; in assay [1] (Homo sapiens)) were 400 to 1000 nM and below 400 nM, respectively.

In the case of `COc1ccc2cnn(C)c2c1NS(=O)(=O)c1cnn(-c2cc(C3(F)CC(F)C3)ccn2)c1` (single isomer, unassigned) [Compound I-378, 1-(4-(1,3-difluorocyclobutyl)pyridin-2-yl)-N-(6-methoxy-1-methyl-1H-indazol-7-yl)-1H-pyrazole-4-sulfonamide], the results for the half-inhibitory concentration (IC50) (against Avi-tagged FL MALT-1; in assay [1]) were at most 400 nM and below 400 nM, respectively.

As to `Cn1ncc2cccc(NS(=O)(=O)c3cnn(-c4cc(C5(O)CCOC5)ccn4)c3)c21` (stereo in doubt) [Compound I-310, (S)-1-(4-(3-hydroxytetrahydrofuran-3-yl)pyridin-2-yl)-N-(1-methyl-1H-indazol-7-yl)-1H-pyrazole-4-sulfonamide], the IC50 against Avi-tagged FL MALT-1 is above 2500 nM; in assay [1] (Homo sapiens), below 400 nM.

For the compound `Cn1ncc2cccc(NS(=O)(=O)c3cnn(-c4cc(C5(O)CCOC5)ccn4)c3)c21` (stereo in doubt) [Compound I-312, (R)-1-(4-(3-hydroxytetrahydrofuran-3-yl)pyridin-2-yl)-N-(1-methyl-1H-indazol-7-yl)-1H-pyrazole-4-sulfonamide], the IC50 against Avi-tagged FL MALT-1 was above 2500 nM; in assay [1] (Homo sapiens) it was below 400 nM.

In the case of `CC[C@](C)(OC)c1ccnc(-n2cc(S(=O)(=O)Nc3cccc4cnn(C)c34)cn2)c1` (stereo in doubt) [Compound I-313, 1-(4-(2-methoxybutan-2-yl)pyridin-2-yl)-N-(1-methyl-1H-indazol-7-yl)-1H-pyrazole-4-sulfonamide], the IC50 against Avi-tagged FL MALT-1 was above 2500 nM; in assay [1] (Homo sapiens) it was below 400 nM.

`CC[C@@](C)(OC)c1ccnc(-n2cc(S(=O)(=O)Nc3cccc4cnn(C)c34)cn2)c1` (stereo in doubt) [Compound I-314, 1-(4-(2-methoxybutan-2-yl)pyridin-2-yl)-N-(1-methyl-1H-indazol-7-yl)-1H-pyrazole-4-sulfonamide]: the IC50 against Avi-tagged FL MALT-1 was above 2500 nM; in assay [1] (Homo sapiens) it was below 400 nM.

Regarding `CCc1ccc2cnn(C)c2c1NS(=O)(=O)c1cnn(-c2ccc(C(F)(F)F)cn2)c1` [Compound I-1, 3N-(6-Ethyl-1-Methyl-1H-Indazol-7-yl)-1-(5-(Trifluoromethyl)Pyridin-2-yl)-1H-Pyrazole-4-Sulfonamide], the IC50 was at most 400 nM at Avi-tagged FL MALT-1 and below 400 nM in assay [1] (Homo sapiens).

Consider `CCc1ccc2cnn(C)c2c1NS(=O)(=O)c1cnn(-c2ccnc(C(F)(F)F)c2)c1` [Compound I-2, N-(6-Ethyl-1-Methyl-1H-Indazol-7-yl)-1-(2-(Trifluoromethyl) Pyridin-4-yl)-1H-Pyrazole-4-Sulfonamide], for which the IC50 was at most 400 nM against Avi-tagged FL MALT-1 and below 400 nM in assay [1] (Homo sapiens).

`CCc1ccc2cnn(C)c2c1NS(=O)(=O)c1cnn(-c2cncc(C(F)(F)F)c2)c1` [Compound I-3, N-(6-Ethyl-1-Methyl-1H-Indazol-7-yl)-1-(5-(Trifluoromethyl) Pyridin-3-yl)-1H-Pyrazole-4-Sulfonamide]: the IC50 is at most 400 nM against Avi-tagged FL MALT-1 and below 400 nM in assay [1] (Homo sapiens).

`COc1ccc2cnn(C)c2c1NS(=O)(=O)c1cnn(-c2ccnc(C(F)(F)F)c2)c1` [Compound I-4, N-(6-Methoxy-1-Methyl-1H-Indazol-7-yl)-1-(2-(Trifluoromethyl)Pyridin-4-yl)-1H-Pyrazole-4-Sulfonamide]: the IC50 against Avi-tagged FL MALT-1 is at most 400 nM; in assay [1] (Homo sapiens), below 400 nM.

For `Cn1ncc2ccc(CC#N)c(NS(=O)(=O)c3cnn(-c4ccnc(C(F)(F)F)c4)c3)c21` [Compound I-6, N-(6-(Cyanomethyl)-1-Methyl-1H-Indazol-7-yl)-1-(2-(Trifluoromethyl)Pyridin-4-yl)-1H-Pyrazole-4-Sulfonamide], the IC50 is 400 to 1000 nM against Avi-tagged FL MALT-1 and 1000 to 2500 nM in assay [1] (Homo sapiens).

`CN(C)c1ccc2cnn(C)c2c1NS(=O)(=O)c1cnn(-c2ccnc(C(F)(F)F)c2)c1` [Compound I-7, N-(6-(Dimethylamino)-1-Methyl-1H-Indazol-7-yl)-1-(2-(Trifluoromethyl)Pyridin-4-yl)-1H-Pyrazole-4-Sulfonamide]: the IC50 was at most 400 nM against Avi-tagged FL MALT-1 and 400 to 1000 nM in assay [1] (Homo sapiens).
